Source: the NIST ThermoML archive (doi:10.1021/je100693c)
Numbers after ± are expanded uncertainties.

How the values were obtained:
[1] = xn = mol fraction of the nth substance listed; details: 101 kPa, Liquid, Vibrating tube method
[2] = excess molar enthalpy (molar enthalpy of mixing); xn = mol fraction of the nth substance listed; details: 101 kPa, Liquid

OCC(F)(F)F [2,2,2-trifluoroethanol] + CCCCn1cc[n+](C)c1.F[B-](F)(F)F
Details | excess molar enthalpy [kJ/mol] | mass density [kg/m3]
[1], 283.15 K, x2 = 0 | – | 1408.2 ± 0.8
[1], 283.15 K, x2 = 0.1032 | – | 1360.8 ± 0.8
[1], 283.15 K, x2 = 0.2129 | – | 1322.2 ± 0.9
[1], 283.15 K, x2 = 0.299 | – | 1299.8 ± 0.9
[1], 283.15 K, x2 = 0.4022 | – | 1279.1 ± 1
[1], 283.15 K, x2 = 0.5028 | – | 1262.9 ± 1.2
[1], 283.15 K, x2 = 0.5808 | – | 1252.3 ± 1.3
[1], 283.15 K, x2 = 0.6912 | – | 1239.6 ± 1.6
[1], 283.15 K, x2 = 0.8062 | – | 1228.5 ± 1.9
[1], 283.15 K, x2 = 0.8945 | – | 1221.2 ± 2.3
[1], 293.15 K, x2 = 0 | – | 1391.1 ± 0.8
[1], 293.15 K, x2 = 0.1032 | – | 1346.9 ± 0.8
[1], 293.15 K, x2 = 0.2129 | – | 1310.1 ± 0.9
[1], 293.15 K, x2 = 0.299 | – | 1288.8 ± 0.9
[1], 293.15 K, x2 = 0.4022 | – | 1269 ± 1
[1], 293.15 K, x2 = 0.5028 | – | 1253.4 ± 1.1
[1], 293.15 K, x2 = 0.5808 | – | 1243.3 ± 1.3
[1], 293.15 K, x2 = 0.6912 | – | 1231.2 ± 1.6
[1], 293.15 K, x2 = 0.8062 | – | 1220.5 ± 1.9
[1], 293.15 K, x2 = 0.8945 | – | 1213.3 ± 2.3
[1], 303.15 K, x2 = 0 | – | 1373.8 ± 0.8
[1], 303.15 K, x2 = 0.1032 | – | 1332.9 ± 0.8
[1], 303.15 K, x2 = 0.2129 | – | 1298.1 ± 0.9
[1], 303.15 K, x2 = 0.299 | – | 1277.9 ± 0.9
[1], 303.15 K, x2 = 0.4022 | – | 1259.1 ± 1
[1], 303.15 K, x2 = 0.5028 | – | 1244.3 ± 1.1
[1], 303.15 K, x2 = 0.5808 | – | 1234.6 ± 1.3
[1], 303.15 K, x2 = 0.6912 | – | 1223.1 ± 1.6
[1], 303.15 K, x2 = 0.8062 | – | 1212.8 ± 1.9
[1], 303.15 K, x2 = 0.8945 | – | 1205.8 ± 2.3
[1], 313.15 K, x2 = 0 | – | 1356.1 ± 0.8
[1], 313.15 K, x2 = 0.1032 | – | 1319 ± 0.8
[1], 313.15 K, x2 = 0.2129 | – | 1286.1 ± 0.9
[1], 313.15 K, x2 = 0.299 | – | 1267 ± 0.9
[1], 313.15 K, x2 = 0.4022 | – | 1249.4 ± 1
[1], 313.15 K, x2 = 0.5028 | – | 1235.2 ± 1.1
[1], 313.15 K, x2 = 0.5808 | – | 1226 ± 1.3
[1], 313.15 K, x2 = 0.6912 | – | 1215 ± 1.5
[1], 313.15 K, x2 = 0.8062 | – | 1205.1 ± 1.9
[1], 313.15 K, x2 = 0.8945 | – | 1198.3 ± 2.2
[1], 323.15 K, x2 = 0 | – | 1338 ± 0.8
[1], 323.15 K, x2 = 0.1032 | – | 1304.9 ± 0.8
[1], 323.15 K, x2 = 0.2129 | – | 1274.3 ± 0.8
[1], 323.15 K, x2 = 0.299 | – | 1256.4 ± 0.9
[1], 323.15 K, x2 = 0.4022 | – | 1239.7 ± 1
[1], 323.15 K, x2 = 0.5028 | – | 1226.4 ± 1.1
[1], 323.15 K, x2 = 0.5808 | – | 1217.5 ± 1.3
[1], 323.15 K, x2 = 0.6912 | – | 1207 ± 1.5
[1], 323.15 K, x2 = 0.8062 | – | 1197.6 ± 1.9
[1], 323.15 K, x2 = 0.8945 | – | 1190.9 ± 2.2
[1], 333.15 K, x2 = 0 | – | 1319.1 ± 0.8
[1], 333.15 K, x2 = 0.1032 | – | 1290.6 ± 0.8
[1], 333.15 K, x2 = 0.2129 | – | 1262.4 ± 0.8
[1], 333.15 K, x2 = 0.299 | – | 1245.8 ± 0.9
[1], 333.15 K, x2 = 0.4022 | – | 1230 ± 1
[1], 333.15 K, x2 = 0.5028 | – | 1217.4 ± 1.1
[1], 333.15 K, x2 = 0.5808 | – | 1209 ± 1.2
[1], 333.15 K, x2 = 0.6912 | – | 1199.1 ± 1.5
[1], 333.15 K, x2 = 0.8062 | – | 1190.1 ± 1.8
[1], 333.15 K, x2 = 0.8945 | – | 1183.6 ± 2.2
[2], 298.15 K, x2 = 0.0878 | 0.727 ± 0.028 | –
[2], 298.15 K, x2 = 0.1614 | 1.17 ± 0.043 | –
[2], 298.15 K, x2 = 0.2042 | 1.28 ± 0.047 | –
[2], 298.15 K, x2 = 0.2779 | 1.33 ± 0.049 | –
[2], 298.15 K, x2 = 0.3392 | 1.26 ± 0.046 | –
[2], 298.15 K, x2 = 0.3908 | 1.21 ± 0.044 | –
[2], 298.15 K, x2 = 0.435 | 1.14 ± 0.042 | –
[2], 298.15 K, x2 = 0.5065 | 0.996 ± 0.037 | –
[2], 298.15 K, x2 = 0.6581 | 0.676 ± 0.026 | –
[2], 298.15 K, x2 = 0.6919 | 0.606 ± 0.023 | –
[2], 298.15 K, x2 = 0.7549 | 0.496 ± 0.02 | –
[2], 298.15 K, x2 = 0.8089 | 0.38 ± 0.016 | –
[2], 298.15 K, x2 = 0.9059 | 0.169 ± 0.0084 | –
[2], 323.15 K, x2 = 0.0459 | 0.181 ± 0.0092 | –
[2], 323.15 K, x2 = 0.1137 | 0.475 ± 0.019 | –
[2], 323.15 K, x2 = 0.2042 | 0.703 ± 0.027 | –
[2], 323.15 K, x2 = 0.2779 | 0.748 ± 0.029 | –
[2], 323.15 K, x2 = 0.3461 | 0.724 ± 0.028 | –
[2], 323.15 K, x2 = 0.435 | 0.643 ± 0.025 | –
[2], 323.15 K, x2 = 0.5359 | 0.534 ± 0.021 | –
[2], 323.15 K, x2 = 0.6062 | 0.451 ± 0.018 | –
[2], 323.15 K, x2 = 0.6978 | 0.331 ± 0.014 | –
[2], 323.15 K, x2 = 0.822 | 0.181 ± 0.0089 | –
[2], 323.15 K, x2 = 0.885 | 0.12 ± 0.0068 | –
